Several values for one entry are separate records, joined by “and”; a condition that tells them apart may be missing. Equal entries are not always repeated. Entries after “also recorded” stand apart in the source; their conditions may differ. Where two headings read alike, the source gives them in different places.
Key:
[1] = test system: Daoy cells; experiment: Daoy cell proliferation (PH3 staining) and apoptosis (TUNEL); type: cell-based, human; conditions: 10 μM, 48-hours
[2] = test system: hiPSC-CMs; experiment: Contractile function of hiPSC-derived cardiomyocytes; type: cell-based, human
[3] = test system: mouse cardiomyocytes; experiment: Contractility of isolated mouse cardiomyocytes; type: cell-based
Text: To observe whether the effects of eggmanone administration are cardiomyocyte specific or due to off target effects, the contractility of individual mouse cardiomyocytes and the tone of ascending/descending aorta was observed. In mouse cardiomyocytes, Egm caused a 50% increase in contractility over vehicle control (FIG. 32).

[4] = test system: total cellular cAMP levels; experiment: cAMP assay (total cellular cAMP, EIA chemiluminescence); type: cell-based
Description: Shh-Light2 cells were seeded in a 96-well plate and incubated overnight. Varying concentrations of Rolipram or Eggmanone (0.013 uM-30 uM) or DMSO only were added to the cells in the absence of serum and incubated 30 minutes, at which time forskolin was added for a final concentration of 1 uM. After an additional 15 minutes, cells were washed with PBS and assayed for cAMP levels using EIA based chemiluminescence kit according to the manufacturer's protocol (Cell Signaling Technologies, Danvers, Mass.).

[5] = test system: Influenza; experiment: Influenza antiviral effect; type: cell-based
[6] = test system: panel of 442 kinases; experiment: Kinase profiling assays (DiscoverRx, phage display model); type: binding
Description: (§1) Profiling assays were not performed in-house. Compounds were shipped to the following companies for possible target identification: Kinase profiling assays were performed by DiscoverRx (San Diego, Calif.) using a phage display model; GPCR profiling assays were performed by Millipore (St. Louis, Mo.) using in cells expressing Gα15, a promiscuous G protein that enhances GPCR coupling to downstream Ca^2+ signaling pathways; phosphatase profiling assay was performed by Millipore (Dundee, UK).

[7] = test system: PDE4 isoforms; experiment: In vitro PDE dose-response assays (BPS Biosciences); type: biochemical; conditions: isoforms of PDE4 A-D; read-out: IC50 range over PDE4 isoforms
Description: In vitro PDE profiling and dose-response assays were performed by BPS Biosciences (San Diego, Calif.). Kinetic Mechanism of inhibition studies were conducted by Millipore (St. Louis, Mo.). In brief, the PDE assay measures fluorescent polarization of FAM-AMP as FAM-cAMP is converted to FAM-AMP by PDE), the binding agent.
A series of dilutions of the test compound were prepared with 10% DMSO in assay buffer and 5 μl of the dilution was added to a 50 μl reaction so that the final concentration of DMSO is 1% in all of reactions. All of the PDE enzymatic reactions were conducted in duplicate at room temperature for 60 minutes in a 50 μl mixture containing PDE assay buffer (10 mM Tris-HCl, pH7.4, 10 mM MaCl2, 0.05% Tween 20), 100 nM FAM-cAMP, a PDE enzyme and a test compound.
After the enzymatic reaction, 100 μl of a binding solution (1:100 dilution of the binding agent, which contains the nano beads that recognize FAM-AMP, with the binding agent diluent) was added to each reaction and the reaction was performed at room temperature for 60 minutes. Fluorescence intensity was measured at an excitation of 485 nm and an emission of 528 nm using a Tecan Infinite M1000 microplate reader. Assays done by Millipore were conducted similarly with changes noted below: […]

[8] = test system: cAMP; experiment: FRET-based cAMP sensors in NIH3T3 cells; type: cell-based; conditions: 2 μM
Text: To visualize changes in cAMP concentrations in individual cells and cellular regions, we utilized two distinct FRET (fluorescence resonance energy transfer)-based cAMP sensors: the Epac-FRET sensor (mTurquoiseΔ-Epac(CD, ΔDEP)-cp173 Venus-Venus)^35, which detects cytosolic cAMP concentration and the PKA-based cAMP sensor (PKAC-YFP and PKARII-CFP combination), which has been used to document changes in local cAMP levels in the centrosome and basal body.

[9] = test system: panel of 158 GPCRs; experiment: Millipore-GPCR Panel (cells expressing Gα15, Ca2+ signaling); type: cell-based
Description: as §1

[10] = test system: Dengue; experiment: Dengue viral CPE assay; type: cell-based
Text: The small molecule PDE4 inhibitors of the presently disclosed subject matter are actively anti-viral in viral CPE (cytopathic effect) assays versus RSV (respiratory syncytial virus), Dengue (1 experiment), and BVDV (bovine viral diarrhea virus, surrogate for human hepatitis C virus). Of note, PDE4 inhibitors are now approved for COPD, for which RSV may be an exacerbating factor).

[11] = test system: panel of 21 phosphatases; experiment: Phosphatase profiling assay (Millipore); type: biochemical, human
Description: as §1

[12] = molecular target: T1, PDE5A1 (Homo sapiens, UniProt O76074); experiment: In vitro PDE assay; type: biochemical
T1 construct: purchased BPS Biosciences (San Diego, Calif.)
How it was run: (§2)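 Fluorescence polarization readout: FAM-AMP formed from 100 nM FAM-cAMP binds nano-bead agent (60 min) and is read at ex 485/em 528 nm. Enzyme reactions ran 60 min at room temperature in duplicate, Tris-HCl pH 7.4 buffer with 10 mM MgCl2 and 0.05% Tween 20, compound in 1% final DMSO.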

[13] = molecular target: T2, PDE7A1 (Homo sapiens, UniProt Q13946); experiment: In vitro PDE assay; type: biochemical
T2 construct: purchased BPS Biosciences (San Diego, Calif.)
How it was run: as §2

[14] = molecular target: T3, PDE10A2 (Homo sapiens, UniProt Q9Y233); experiment: In vitro PDE assay; type: biochemical
T3 construct: purchased BPS Biosciences (San Diego, Calif.)
How it was run: as §2

[15] = molecular target: T4, PDE6C (Homo sapiens, UniProt P51160); experiment: In vitro PDE assay; type: biochemical
T4 construct: purchased BPS Biosciences (San Diego, Calif.)
How it was run: as §2

[16] = molecular target: T5, PDE9A1 (Homo sapiens, UniProt O76083); experiment: In vitro PDE assay; type: biochemical
T5 construct: purchased BPS Biosciences (San Diego, Calif.)
How it was run: as §2

[17] = molecular target: T6, PDE2A (Homo sapiens, UniProt O00408); experiment: In vitro PDE assay; type: biochemical
T6 construct: purchased BPS Biosciences (San Diego, Calif.)
How it was run: as §2

[18] = molecular target: T7, PDE1A1 (Homo sapiens, UniProt P54750); experiment: In vitro PDE assay; type: biochemical
T7 construct: purchased BPS Biosciences (San Diego, Calif.)
How it was run: as §2

[19] = molecular target: T8, PDE8A1 (Homo sapiens, UniProt O60658); experiment: In vitro PDE assay; type: biochemical
T8 construct: purchased BPS Biosciences (San Diego, Calif.)
How it was run: as §2

[20] = molecular target: T9, PDE3A (Homo sapiens, UniProt Q14432); experiment: In vitro PDE assay; type: biochemical
T9 construct: purchased BPS Biosciences (San Diego, Calif.)
How it was run: as §2

[21] = molecular target: T10, PDE11A4 (Homo sapiens, UniProt Q9HCR9); experiment: In vitro PDE assay; type: biochemical
T10 construct: purchased BPS Biosciences (San Diego, Calif.)
How it was run: as §2

T10 sequence (Q9HCR9 whole entry): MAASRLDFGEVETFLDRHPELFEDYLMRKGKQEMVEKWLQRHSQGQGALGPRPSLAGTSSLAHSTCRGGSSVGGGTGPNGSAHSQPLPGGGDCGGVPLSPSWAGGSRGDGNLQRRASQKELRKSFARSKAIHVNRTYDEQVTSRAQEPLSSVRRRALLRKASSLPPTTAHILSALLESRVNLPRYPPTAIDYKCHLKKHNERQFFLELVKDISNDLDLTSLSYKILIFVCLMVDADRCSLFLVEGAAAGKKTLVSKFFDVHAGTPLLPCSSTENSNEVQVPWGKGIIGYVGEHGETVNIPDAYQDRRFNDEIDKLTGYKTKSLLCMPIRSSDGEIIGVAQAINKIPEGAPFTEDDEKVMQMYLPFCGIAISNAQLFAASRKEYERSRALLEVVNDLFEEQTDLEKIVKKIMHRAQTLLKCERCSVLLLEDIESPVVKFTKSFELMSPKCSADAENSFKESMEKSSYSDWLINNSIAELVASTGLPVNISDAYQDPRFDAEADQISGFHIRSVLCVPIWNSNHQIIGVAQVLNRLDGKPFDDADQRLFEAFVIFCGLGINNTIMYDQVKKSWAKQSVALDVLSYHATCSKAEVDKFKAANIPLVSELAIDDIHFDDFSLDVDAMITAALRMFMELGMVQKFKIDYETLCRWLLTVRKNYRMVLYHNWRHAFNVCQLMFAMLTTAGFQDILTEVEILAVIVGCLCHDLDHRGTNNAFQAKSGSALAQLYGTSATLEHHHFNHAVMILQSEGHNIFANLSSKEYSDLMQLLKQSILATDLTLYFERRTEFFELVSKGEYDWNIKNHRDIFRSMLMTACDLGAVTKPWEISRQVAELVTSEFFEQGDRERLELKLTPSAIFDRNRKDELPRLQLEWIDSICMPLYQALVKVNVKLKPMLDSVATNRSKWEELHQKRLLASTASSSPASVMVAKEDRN
T4 sequence (P51160 whole entry): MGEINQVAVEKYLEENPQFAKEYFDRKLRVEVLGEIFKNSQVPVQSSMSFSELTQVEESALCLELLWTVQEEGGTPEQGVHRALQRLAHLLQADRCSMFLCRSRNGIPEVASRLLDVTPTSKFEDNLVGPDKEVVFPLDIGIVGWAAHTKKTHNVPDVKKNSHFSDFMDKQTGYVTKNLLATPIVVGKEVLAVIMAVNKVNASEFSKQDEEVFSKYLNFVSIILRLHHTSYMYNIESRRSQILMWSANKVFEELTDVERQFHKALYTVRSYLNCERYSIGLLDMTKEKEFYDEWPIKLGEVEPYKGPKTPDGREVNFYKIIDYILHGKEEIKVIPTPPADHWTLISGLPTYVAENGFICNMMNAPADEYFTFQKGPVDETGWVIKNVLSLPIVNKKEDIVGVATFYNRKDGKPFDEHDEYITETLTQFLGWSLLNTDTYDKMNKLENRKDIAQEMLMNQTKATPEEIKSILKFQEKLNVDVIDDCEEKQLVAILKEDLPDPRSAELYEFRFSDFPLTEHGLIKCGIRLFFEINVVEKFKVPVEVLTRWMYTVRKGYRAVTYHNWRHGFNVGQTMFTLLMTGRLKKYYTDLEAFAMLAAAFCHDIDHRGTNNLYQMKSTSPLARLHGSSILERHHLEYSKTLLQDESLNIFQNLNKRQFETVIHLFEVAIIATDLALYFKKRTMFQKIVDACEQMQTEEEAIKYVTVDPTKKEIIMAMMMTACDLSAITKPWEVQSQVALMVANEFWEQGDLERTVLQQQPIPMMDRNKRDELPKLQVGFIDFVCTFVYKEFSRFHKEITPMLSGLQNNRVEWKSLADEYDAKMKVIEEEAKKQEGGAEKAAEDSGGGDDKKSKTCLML
T3 sequence (Q9Y233 267-1055): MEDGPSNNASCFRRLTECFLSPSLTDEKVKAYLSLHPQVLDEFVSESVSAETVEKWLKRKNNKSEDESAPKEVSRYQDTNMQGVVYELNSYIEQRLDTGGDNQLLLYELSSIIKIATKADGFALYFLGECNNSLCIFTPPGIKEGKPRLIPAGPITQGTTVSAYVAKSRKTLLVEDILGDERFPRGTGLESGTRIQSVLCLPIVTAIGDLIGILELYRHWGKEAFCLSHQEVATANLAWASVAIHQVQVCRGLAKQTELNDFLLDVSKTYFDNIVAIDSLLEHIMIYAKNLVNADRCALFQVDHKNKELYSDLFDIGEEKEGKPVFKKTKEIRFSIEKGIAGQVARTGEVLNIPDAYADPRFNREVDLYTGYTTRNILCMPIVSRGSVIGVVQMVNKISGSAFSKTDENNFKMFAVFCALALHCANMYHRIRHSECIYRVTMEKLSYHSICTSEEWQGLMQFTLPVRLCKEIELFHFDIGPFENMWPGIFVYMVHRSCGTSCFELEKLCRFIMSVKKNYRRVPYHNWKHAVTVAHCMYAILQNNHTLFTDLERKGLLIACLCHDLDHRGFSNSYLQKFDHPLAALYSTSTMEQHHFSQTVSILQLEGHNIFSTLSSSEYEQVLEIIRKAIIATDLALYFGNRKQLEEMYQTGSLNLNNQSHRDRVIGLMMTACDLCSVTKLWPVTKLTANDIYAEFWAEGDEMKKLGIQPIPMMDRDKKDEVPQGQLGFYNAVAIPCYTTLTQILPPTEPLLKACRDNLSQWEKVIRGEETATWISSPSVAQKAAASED
T8 sequence (O60658 whole entry): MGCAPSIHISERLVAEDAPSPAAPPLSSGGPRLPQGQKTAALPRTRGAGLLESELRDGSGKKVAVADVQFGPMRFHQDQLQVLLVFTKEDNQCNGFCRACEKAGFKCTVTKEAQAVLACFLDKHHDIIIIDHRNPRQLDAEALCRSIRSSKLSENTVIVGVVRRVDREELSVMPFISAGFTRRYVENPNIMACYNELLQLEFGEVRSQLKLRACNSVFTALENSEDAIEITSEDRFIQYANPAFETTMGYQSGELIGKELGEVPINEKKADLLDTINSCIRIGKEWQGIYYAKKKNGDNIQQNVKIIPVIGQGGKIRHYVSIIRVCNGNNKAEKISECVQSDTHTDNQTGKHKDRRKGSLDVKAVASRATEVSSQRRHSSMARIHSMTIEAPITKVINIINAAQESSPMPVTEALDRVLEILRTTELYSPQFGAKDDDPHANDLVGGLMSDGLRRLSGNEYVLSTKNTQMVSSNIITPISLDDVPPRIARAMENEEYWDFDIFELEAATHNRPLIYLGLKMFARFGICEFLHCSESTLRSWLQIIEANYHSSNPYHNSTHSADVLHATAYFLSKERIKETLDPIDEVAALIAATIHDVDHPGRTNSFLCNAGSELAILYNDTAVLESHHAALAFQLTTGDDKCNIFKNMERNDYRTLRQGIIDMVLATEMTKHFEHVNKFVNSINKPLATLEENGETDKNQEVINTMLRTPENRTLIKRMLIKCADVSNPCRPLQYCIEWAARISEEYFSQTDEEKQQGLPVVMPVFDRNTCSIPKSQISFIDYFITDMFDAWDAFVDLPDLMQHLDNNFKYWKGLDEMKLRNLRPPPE
T5 sequence (O76083 whole entry): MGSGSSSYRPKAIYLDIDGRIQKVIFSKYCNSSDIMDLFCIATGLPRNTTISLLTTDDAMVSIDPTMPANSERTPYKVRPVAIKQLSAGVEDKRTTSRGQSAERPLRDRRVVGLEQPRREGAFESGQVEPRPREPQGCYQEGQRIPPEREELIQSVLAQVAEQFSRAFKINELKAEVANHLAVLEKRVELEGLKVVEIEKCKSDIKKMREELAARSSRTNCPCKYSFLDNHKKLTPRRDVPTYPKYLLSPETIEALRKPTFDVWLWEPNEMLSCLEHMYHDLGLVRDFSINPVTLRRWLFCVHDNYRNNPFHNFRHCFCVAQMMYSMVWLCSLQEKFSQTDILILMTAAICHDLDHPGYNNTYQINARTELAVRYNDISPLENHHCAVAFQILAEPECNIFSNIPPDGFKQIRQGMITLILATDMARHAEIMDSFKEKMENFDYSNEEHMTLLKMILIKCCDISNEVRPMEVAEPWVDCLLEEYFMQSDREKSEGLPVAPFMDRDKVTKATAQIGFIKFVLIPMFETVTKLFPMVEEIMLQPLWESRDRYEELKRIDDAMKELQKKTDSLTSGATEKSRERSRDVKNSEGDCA
T2 sequence (Q13946 whole entry): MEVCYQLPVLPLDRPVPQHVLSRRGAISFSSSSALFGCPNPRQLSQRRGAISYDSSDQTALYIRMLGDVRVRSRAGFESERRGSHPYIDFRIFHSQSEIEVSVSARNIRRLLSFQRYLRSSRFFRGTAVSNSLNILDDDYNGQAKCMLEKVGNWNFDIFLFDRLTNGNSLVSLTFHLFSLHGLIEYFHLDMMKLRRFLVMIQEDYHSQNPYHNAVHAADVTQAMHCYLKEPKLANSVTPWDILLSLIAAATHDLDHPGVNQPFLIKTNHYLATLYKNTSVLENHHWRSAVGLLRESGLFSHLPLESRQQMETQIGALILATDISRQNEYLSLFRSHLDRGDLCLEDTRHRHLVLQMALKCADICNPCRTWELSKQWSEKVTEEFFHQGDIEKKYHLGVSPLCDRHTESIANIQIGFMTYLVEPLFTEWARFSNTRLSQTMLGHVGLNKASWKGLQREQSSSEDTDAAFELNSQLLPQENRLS
T7 sequence (P54750 1-529 isoform P54750-6): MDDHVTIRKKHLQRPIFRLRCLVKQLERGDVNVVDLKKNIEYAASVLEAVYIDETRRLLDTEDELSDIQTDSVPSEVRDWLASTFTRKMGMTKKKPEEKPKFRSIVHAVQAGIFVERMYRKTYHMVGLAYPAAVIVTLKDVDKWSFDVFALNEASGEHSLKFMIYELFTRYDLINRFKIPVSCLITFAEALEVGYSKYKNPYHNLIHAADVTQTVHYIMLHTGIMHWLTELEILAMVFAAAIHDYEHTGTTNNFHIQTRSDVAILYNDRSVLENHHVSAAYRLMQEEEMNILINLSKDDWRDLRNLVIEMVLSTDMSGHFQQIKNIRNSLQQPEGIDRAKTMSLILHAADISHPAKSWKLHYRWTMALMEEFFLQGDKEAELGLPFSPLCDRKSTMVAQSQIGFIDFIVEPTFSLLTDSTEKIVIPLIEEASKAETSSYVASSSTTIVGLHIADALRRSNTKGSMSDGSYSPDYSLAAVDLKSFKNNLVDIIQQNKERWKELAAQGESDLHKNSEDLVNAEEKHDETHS

C=C(C)Cn1c(SCC(=O)c2cccs2)nc2sc3c(c2c1=O)CCCC3 [EGM, Eggmanone]
Apoptosis (TUNEL staining) [1]: increased apoptosis
Cell proliferation (phospho-histone H3 staining) [1]: decreased cell proliferation
Contractile function [2]: increased contractile function
increase in contractility over vehicle control [3]: 50%
Total cellular cAMP levels [4]: without raising total cellular cAMP content
Total cellular cAMP levels ([4]; listed as Egm): only caused small increase at concentrations above those required to inhibit Hh signaling

C=C(C)Cn1c(SCC(=O)c2cccs2)nc2sc3c(c2c1=O)CCCC3 [Eggmanone, 3-(2-methylallyl)-2-((2-oxo-2-(thiophen-2-yl)ethyl)thio)-5,6,7,8-tetrahydrobenzo[4,5]thieno[2,3-d]pyrimidine-4(3H)-one]
Antiviral effect on Influenza [5]: has antiviral effects
agonist or antagonist activity [6]: did not exhibit significant agonist or antagonist activity
significant inhibition [6]: > 10 µM
IC50 [7]: 0.8 to 3 µM and 0.8 to 3.75 µM
Cytosolic FRET signal (Epac-FRET sensor) [8]: had no effect on the cytosolic FRET signal
cAMP levels by PKA-based cAMP sensor [8]: increased cAMP levels only at discrete regions
agonist or antagonist activity [9]: did not exhibit significant agonist or antagonist activity
significant inhibition [9]: > 10 µM
Antiviral effect on Dengue [10]: has antiviral effects
agonist or antagonist activity [11]: did not exhibit significant agonist or antagonist activity
significant inhibition [11]: > 10 µM
Total cellular cAMP levels [4]: had no effect on total cellular cAMP content; also recorded: did not significantly increase total cAMP levels
Total cellular cAMP levels ([4]; listed as eggmanone): did not increase total cAMP levels
inhibition at 50 µM [12]: < 10%
inhibition at 50 µM [13]: < 10%
inhibition at 50 µM [14]: < 10%
inhibition at 50 µM [15]: < 10%
inhibition at 50 µM [16]: < 10%
IC50 [17]: > 50 µM
inhibition at 50 µM [18]: < 10%
inhibition at 50 µM [19]: < 10%
IC50 [20]: > 50 µM
IC50 [21]: > 50 µM

Reference: patent US10329304B2, “Compounds and methods for inhibition of hedgehog signaling and phosphodiesterase” (Vanderbilt University, priority 2014, dated 2019)
